Data: patent publication US12590100B2, “Tetrahydro-spiroindoline-pyrrolopyrrole-triones inhibitors of the NRF2-β-TrCP interaction for use in the treatment of fatty liver disease” (Universidad Autonoma De Madrid, priority 2021, dated 2026)

Columns and labels:
[1] = tested on: transcriptional activity of NRF2; assay: ARE luciferase reporter assay in MCF-7 c32 ARE-LUC cells; format: cell-based; conditions: 9 μM, 16 h
Method: FIG. 4. […] MEFs in serum-depleted conditions were subjected to (A-C) 1 μM, 3 μM, or 10 μM of PHAR and 10 μM of SFN as a positive control for 16 h; or (D-F) 10 μM of PHAR for the indicated times. In both experiments, 0.1% DMSO was used as a vehicle. A), representative immunoblots of NRF2, HO1, KEAP1, LAMINB, and GAPDH as loading controls. B) and C), densitometric analysis of NRF2 and HO1 protein levels of the representative immunoblots depicted in (A), expressed as a ratio of NRF2/LAMINB or HO1/GAPDH. The data is depicted as means±SEM (n=3). Statistical analysis was performed with one-way ANOVA followed by the Bonferroni test to check inter-group differences. *p<0.05; ***p<0.001 vs. 0. D), representative immunoblots of NRF2, HO1, KEAP1, LAMINB, and GAPDH as loading controls. E) and F), Densitometric analysis of NRF2 and HO1 protein levels of the representative immunoblots of (D), expressed as a ratio of NRF2/LAMINB or HO1/GAPDH. The data is depicted as means±SEM (n=3). Statistical analysis was performed with one-way ANOVA followed by the Bonferroni test to check inter-group differences. *p<0.05; ***p<0.001 vs. 0. […] Luciferase activity was measured after 16 h of treatment. […] The mRNA levels of Hmox1, Nqo1, Aox1, Glc, and Gclm after 8 h of treatment were determined by means of pRT-PCR and normalized by means of average LaminB, Gapdh, and β-actin. […]

NRF2 = assay: NRF2/HO-1 induction in Keap1−/− versus Keap1+/+ MEFs; format: cell-based, mouse; conditions: PHAR 10 μM, 8 h
Method: FIG. 5. PHAR-mediated NRF2 activation is independent of KEAP1 and is responsible for the increase in the expression of its targets. (A-D) Serum-deprived MEFs originating from wild-type (WT) or KEAP1 null (Keap1−/−) mice were treated with 10 μM of PHAR for the indicated times. 0.1% DMSO was used as a vehicle. A), representative immunoblots of NRF2, HO1, KEAP1, LAMINB, and GAPDH as loading controls. B) and C), densitometric analysis of NRF2 and HO1 protein levels of the representative immunoblots of (A), expressed as a ratio of NRF2/LAMINB or HO1/GAPDH. The data is depicted as means±SEM (n=3). Statistical analysis was performed with two-way ANOVA followed by the Bonferroni test to check inter-group differences. D), the mRNA levels of Hmox-1, Nqo1, Aox1, Gc1c, and Gc1m were determined after 8 h of 10 μM PHAR by means of qRT-PCR and normalized by means of average Gapdh, Tbp, and β-actin. The data is depicted as mean±SEM (n=3). […] F) and G), densitometric analysis of NRF2 and HO1 protein levels of the representative immunoblots of (E), expressed as a ratio of NRF2/LAMINB or HO1/GAPDH. […] H), the mRNA levels of Hmox-1, Nqo1, Aox1, Gclc, and Gclm were determined after 8 h of 10 μM PHAR by means of qRT-PCR and normalized by means of average Gapdh, Tbp, and β-actin. […]

What does the source list for `O=C1[C@@H]2[C@H](Cc3c[nH]c4ccccc34)N[C@]3(C(=O)Nc4ccc(Cl)cc43)[C@@H]2C(=O)N1c1ccc2c(c1)OCCO2` [PHAR]?
increase in luciferase activity [1]: ~4 fold; mRNA levels of other NRF2 targets in Keap1−/− compared with Keap1+/+ MEFs (NRF2): The same result was obtained
